Reference: PubChem BioAssay AID192 (DTP/NCI, 2004)
“And” between values parts separate entries of the source, which are not always exact repeats. Identical values can stand only once. Inconclusive results and toxic doses are left out. Numbered stars: 1 amine (or outer) side, 2 acyl side, 3 side chain; on linkers, the order of the positions; unused ones are H or OH. Peptide text beside a SMILES is read from it. ξ: configuration not given here. ξγGlu = O=C(O)C(CCC(=O)[*:2])N[*:1]

Test system: BDF1 mice, B16 melanoma ip, median survival T/C
Test: NCI In Vivo Anticancer Drug Screen. Data for tumor model B16 Melanoma (intraperitoneal) in B6D2F1 (BDF1) mice
Details: endpoint: median survival time, higher = longer survival
Method: The antitumor activity of compounds was measured in mice bearing transplantable tumors. Survival or tumor size were measured and the results are expressed as the measurement made in the treated group (T) divided by the measurement made in the vehicle treated control group (C). The tumor model used in this assay is B16 Melanoma (intraperitoneal) in B6D2F1 (BDF1) mice

[1] = dose: 100.0 mg/kg/injection, schedule: Q01DX009 (ip), vehicle: Klucel (hydroxypropylcellulose) (HPC)
[2] = dose: 200.0 mg/kg/injection, schedule: Q01DX009 (ip), vehicle: Klucel (hydroxypropylcellulose) (HPC)
[3] = dose: 400.0 mg/kg/injection, schedule: Q01DX009 (ip), vehicle: Klucel (hydroxypropylcellulose) (HPC)
[4] = dose: 50.0 mg/kg/injection, schedule: Q01DX009 (ip), vehicle: Klucel (hydroxypropylcellulose) (HPC)
[5] = dose: 25.0 mg/kg/injection, schedule: Q01DX009 (ip), vehicle: Klucel (hydroxypropylcellulose) (HPC)
[6] = dose: 5.0 mg/kg/injection, schedule: Q01DX009 (ip), vehicle: saline with Tween-80
[7] = dose: 10.0 mg/kg/injection, schedule: Q01DX009 (ip), vehicle: saline with Tween-80
[8] = dose: 20.0 mg/kg/injection, schedule: Q01DX009 (ip), vehicle: saline with Tween-80

SMILES: COc1cccc2c1C(=O)c1c(O)c3c(c(O)c1C2=O)C[C@@](O)(C(=O)CO)C[C@@H]3OC1CC([N+](C)(C)C)C(O)C(C)O1 (stereo partly drawn)
- T/C (dose: 4.32 mg/kg/injection, schedule: Q04DX003 (ip), vehicle: water): 108 % of control and 110 % of control
- T/C (dose: 6.48 mg/kg/injection, schedule: Q01DX001 (ip), vehicle: water): 107 % of control and 119 % of control
- T/C (dose: 7.2 mg/kg/injection, schedule: Q04DX003 (ip), vehicle: water): 116 % of control and 119 % of control
- T/C (dose: 10.8 mg/kg/injection, schedule: Q01DX001 (ip), vehicle: water): 103 % of control and 123 % of control
- T/C (dose: 12.0 mg/kg/injection, schedule: Q04DX003 (ip), vehicle: water): 108 % of control and 112 % of control
- T/C (dose: 18.0 mg/kg/injection, schedule: Q01DX001 (ip), vehicle: water): 105 % of control
- T/C (dose: 20.0 mg/kg/injection, schedule: Q04DX003 (ip), vehicle: water): 107 % of control
- T/C (dose: 30.0 mg/kg/injection, schedule: Q01DX001 (ip), vehicle: water): 102 % of control and 113 % of control

SMILES: S=P(Nc1ccccc1)(Nc1ccccc1)c1ccccc1
- T/C [1]: 104 % of control
- T/C [2]: 96 % of control
- T/C [3]: 87 % of control

SMILES: NC(CCC(=O)NCC(=O)NCC(=O)O)C(=O)O (stereo not drawn) (ξγGlu-Gly-Gly-OH)
- T/C (dose: 50.0 mg/kg/injection, schedule: Q01DX009 (ip), vehicle: saline): 106 % of control
- T/C (dose: 100.0 mg/kg/injection, schedule: Q01DX009 (ip), vehicle: saline): 97 % of control
- T/C (dose: 200.0 mg/kg/injection, schedule: Q01DX009 (ip), vehicle: saline): 102 % of control
- T/C (dose: 400.0 mg/kg/injection, schedule: Q01DX009 (ip), vehicle: saline): 91 % of control

SMILES: CC(C)C1(C(=O)NNC(=O)CCCc2ccc(N(CCCl)CCCl)cc2)OC2(O)CCCCCN2C1=O (stereo not drawn)
- T/C (dose: 6.25 mg/kg/injection, schedule: Q04DX003 (ip), vehicle: Klucel (hydroxypropylcellulose) (HPC)): 105 % of control
- T/C (dose: 12.5 mg/kg/injection, schedule: Q01DX009 (ip), vehicle: DMSO): 114 % of control
- T/C (dose: 12.5 mg/kg/injection, schedule: Q04DX003 (ip), vehicle: Klucel (hydroxypropylcellulose) (HPC)): 118 % of control
- T/C (dose: 100.0 mg/kg/injection, schedule: Q04DX003 (ip), vehicle: Klucel (hydroxypropylcellulose) (HPC)): 167 % of control

SMILES: c1ccc(N/N=C2/c3ccccc3CC23OC3c2ccccc2)cc1 (stereo not drawn)
- T/C [4]: 87 % of control
- T/C [1]: 96 % of control
- T/C [3]: 89 % of control

SMILES: COc1c2ccoc2c(OCC=C(C)C)c2oc(=O)ccc12
- T/C (dose: 100.0 mg/kg/injection, schedule: Q04DX003 (ip), vehicle: saline with Tween-80): 94 % of control
- T/C (dose: 200.0 mg/kg/injection, schedule: Q04DX003 (ip), vehicle: saline with Tween-80): 105 % of control
- T/C (dose: 400.0 mg/kg/injection, schedule: Q04DX003 (ip), vehicle: saline with Tween-80): 97 % of control

SMILES: NC(=O)C=C1c2ccccc2-c2ccccc21
- T/C [5]: 100 % of control
- T/C [4]: 100 % of control
- T/C [1]: 94 % of control
- T/C [2]: 88 % of control
- T/C [3]: 86 % of control

SMILES: CC(=O)SCCC(=O)O
- T/C (dose: 0.75 mg/kg/injection, schedule: Q01DX009 (ip), vehicle: saline): 107 % of control
- T/C (dose: 1.5 mg/kg/injection, schedule: Q01DX009 (ip), vehicle: saline): 112 % of control
- T/C (dose: 3.0 mg/kg/injection, schedule: Q01DX009 (ip), vehicle: saline): 114 % of control

SMILES: Cc1ccc2c([N+](=O)[O-])cccc2n1
- T/C [5]: 107 % of control
- T/C [4]: 93 % of control
- T/C [1]: 98 % of control

SMILES: COc1ccc(-c2csc(=[N+]3CCCCC3)s2)cc1
- T/C (dose: 1.56 mg/kg/injection, schedule: Q01DX009 (ip), vehicle: water): 94 % of control and 95 % of control
- T/C (dose: 3.12 mg/kg/injection, schedule: Q01DX009 (ip), vehicle: water): 90 % of control and 101 % of control
- T/C (dose: 6.25 mg/kg/injection, schedule: Q01DX009 (ip), vehicle: water): 101 % of control and 102 % of control
- T/C (dose: 12.5 mg/kg/injection, schedule: Q01DX009 (ip), vehicle: water): 103 % of control and 109 % of control
- T/C (dose: 25.0 mg/kg/injection, schedule: Q01DX009 (ip), vehicle: water): 86 % of control and 110 % of control

SMILES: O=C(CCCN1CCC(O)(c2cccc(C(F)(F)F)c2)CC1)c1ccc(F)cc1
- T/C (dose: 0.04 mg/kg/injection, schedule: Q01DX009 (ip), vehicle: Klucel (hydroxypropylcellulose) (HPC)): 93 % of control
- T/C (dose: 0.19 mg/kg/injection, schedule: Q01DX009 (ip), vehicle: Klucel (hydroxypropylcellulose) (HPC)): 101 % of control
- T/C (dose: 0.39 mg/kg/injection, schedule: Q01DX009 (ip), vehicle: Klucel (hydroxypropylcellulose) (HPC)): 112 % of control
- T/C (dose: 0.78 mg/kg/injection, schedule: Q01DX009 (ip), vehicle: Klucel (hydroxypropylcellulose) (HPC)): 105 % of control
- T/C (dose: 4.0 mg/kg/injection, schedule: Q01DX009 (ip), vehicle: Klucel (hydroxypropylcellulose) (HPC)): 95 % of control
- T/C (dose: 8.0 mg/kg/injection, schedule: Q01DX009 (ip), vehicle: Klucel (hydroxypropylcellulose) (HPC)): 98 % of control

SMILES: O=NN(CCCl)C(=O)NCC1CCC(CNC(=O)N(CCCl)N=O)CC1 (stereo not drawn)
- T/C (dose: 17.0 mg/kg/injection, schedule: Q01DX009 (ip), vehicle: saline): 122 % of control
- T/C (dose: 33.0 mg/kg/injection, schedule: Q01DX009 (ip), vehicle: saline): 152 % of control
- T/C (dose: 65.0 mg/kg/injection, schedule: Q01DX009 (ip), vehicle: saline): 184 % of control
- T/C (dose: 130.0 mg/kg/injection, schedule: Q01DX009 (ip), vehicle: saline): 193 % of control

SMILES: C1CC[N-]CC1.C1CC[N-]CC1.[Cl][Pt+2]([Cl])([Cl])[Cl]
- T/C [4]: 111 % of control
- T/C [1]: 120 % of control
- T/C [2]: 123 % of control

SMILES: CCOC(=O)CN1CCC(C2(c3cc4ccccc4[nH]3)OCCO2)CC1
- T/C [4]: 105 % of control
- T/C [1]: 93 % of control
- T/C [2]: 99 % of control

SMILES: COC1N(C2CC(O)C(CO)O2)C(=O)NC(=O)C1(F)Br (stereo not drawn)
- T/C (dose: 1.56 mg/kg/injection, schedule: Q01DX009 (ip), vehicle: saline): 100 % of control
- T/C (dose: 3.12 mg/kg/injection, schedule: Q01DX009 (ip), vehicle: saline): 87 % of control
- T/C [6]: 106 % of control
- T/C (dose: 6.25 mg/kg/injection, schedule: Q01DX009 (ip), vehicle: saline): 102 % of control
- T/C [7]: 109 % of control
- T/C (dose: 12.5 mg/kg/injection, schedule: Q01DX009 (ip), vehicle: saline): 108 % of control
- T/C [8]: 104 % of control
- T/C (dose: 25.0 mg/kg/injection, schedule: Q01DX009 (ip), vehicle: saline): 88 % of control

SMILES: COc1cccc(/C=C/[N+](=O)[O-])c1
- T/C [6]: 98 % of control
- T/C [7]: 101 % of control
- T/C [8]: 94 % of control and 98 % of control

SMILES: O=C(NCCCl)NCCCl
- T/C (dose: 5.0 mg/kg/injection, schedule: Q01DX009 (ip), vehicle: Klucel (hydroxypropylcellulose) (HPC)): 94 % of control
- T/C (dose: 10.0 mg/kg/injection, schedule: Q01DX009 (ip), vehicle: Klucel (hydroxypropylcellulose) (HPC)): 102 % of control
- T/C (dose: 12.5 mg/kg/injection, schedule: Q01DX009 (ip), vehicle: saline with Tween-80): 95 % of control
- T/C (dose: 20.0 mg/kg/injection, schedule: Q01DX009 (ip), vehicle: Klucel (hydroxypropylcellulose) (HPC)): 88 % of control
- T/C (dose: 25.0 mg/kg/injection, schedule: Q01DX009 (ip), vehicle: saline with Tween-80): 95 % of control
- T/C (dose: 40.0 mg/kg/injection, schedule: Q01DX009 (ip), vehicle: Klucel (hydroxypropylcellulose) (HPC)): 91 % of control
- T/C (dose: 50.0 mg/kg/injection, schedule: Q01DX009 (ip), vehicle: saline with Tween-80): 100 % of control
- T/C (dose: 80.0 mg/kg/injection, schedule: Q01DX009 (ip), vehicle: Klucel (hydroxypropylcellulose) (HPC)): 102 % of control
- T/C (dose: 160.0 mg/kg/injection, schedule: Q01DX009 (ip), vehicle: Klucel (hydroxypropylcellulose) (HPC)): 94 % of control
- T/C (dose: 200.0 mg/kg/injection, schedule: Q01DX009 (ip), vehicle: saline with Tween-80): 95 % of control
- T/C (dose: 320.0 mg/kg/injection, schedule: Q01DX009 (ip), vehicle: Klucel (hydroxypropylcellulose) (HPC)): 91 % of control
- T/C (dose: 400.0 mg/kg/injection, schedule: Q01DX009 (ip), vehicle: saline with Tween-80): 102 % of control

SMILES: COC(=O)NC1CC=CCC1I (stereo not drawn)
- T/C (dose: 12.5 mg/kg/injection, schedule: Q01DX009 (ip), vehicle: saline + alcohol): 109 % of control
- T/C (dose: 25.0 mg/kg/injection, schedule: Q01DX009 (ip), vehicle: saline + alcohol): 97 % of control
- T/C (dose: 50.0 mg/kg/injection, schedule: Q01DX009 (ip), vehicle: saline + alcohol): 88 % of control
